# Results: article PMC6825211 (Nature Communications, 2019)
# Values joined by “and” are separate entries in the source; they are usually repeats but may differ in a detail not shown here. Equal values may be shown once.
# Columns and labels:
# [1] = molecular target: T1, AXL (Homo sapiens, UniProt P30530); test: Nanosyn kinase profiling, mobility shift assay; assay type: biochemical; details: 12 points dose response
# T1 construct: Nanosyn (assay service)
# Procedure: (§1) inhibition was determined for each assay.
# [2] = molecular target: T2, CHEK2 (Homo sapiens, UniProt O96017); test: Nanosyn kinase profiling, mobility shift assay; assay type: biochemical; details: 12 points dose response
# T2 construct: Nanosyn (assay service)
# Procedure: as §1
# [3] = molecular target: T3, HIPK1 (Homo sapiens, UniProt Q86Z02); test: Nanosyn kinase profiling, mobility shift assay; assay type: biochemical; details: 12 points dose response
# T3 construct: Nanosyn (assay service)
# Procedure: as §1
# [4] = molecular target: MAP4K2 (Homo sapiens, UniProt Q12851); test: Nanosyn kinase profiling, mobility shift assay; assay type: biochemical; details: 12 points dose response
# Procedure: as §1
# [5] = molecular target: T4, MST3 (Homo sapiens, UniProt Q9Y6E0); test: Nanosyn kinase profiling, mobility shift assay; assay type: biochemical; details: 12 points dose response
# T4 construct: Nanosyn (assay service)
# Procedure: as §1
# [6] = molecular target: PAK3 (Homo sapiens, UniProt O75914); test: Nanosyn kinase profiling, mobility shift assay; assay type: biochemical; details: 12 points dose response
# Procedure: as §1
# [7] = molecular target: T5, PAK5 (Homo sapiens, UniProt Q9P286); test: Nanosyn kinase profiling, mobility shift assay; assay type: biochemical; details: 12 points dose response
# T5 construct: Nanosyn (assay service)
# Procedure: as §1
# [8] = molecular target: T6, PAK6 (Homo sapiens, UniProt Q9NQU5); test: Nanosyn kinase profiling, mobility shift assay; assay type: biochemical; details: 12 points dose response
# T6 construct: Nanosyn (assay service)
# Procedure: as §1
# [9] = molecular target: T7, PHK1 (Homo sapiens, UniProt Q16816); test: Nanosyn kinase profiling, mobility shift assay; assay type: biochemical; details: 12 points dose response
# T7 construct: Nanosyn (assay service)
# Procedure: as §1
# [10] = system: panel of 50 serine, threonine, and tyrosine kinases; test: Nanosyn panel of 50 biochemical kinase assays; details: 10 µM, of 50 kinases
# [11] = system: MLD–STZ C57BL/6J mice; test: MLD–STZ model: ratio of secreted insulin and glucose at fed state; assay type: in vivo, mouse
# [12] = system: MLD–STZ C57BL/6J mice; test: MLD–STZ model: β-cell proliferation (Ki67); assay type: in vivo, mouse
# [13] = system: obese diabetic Lepr db/db mice; test: db/db model: ipGTT; assay type: in vivo, mouse; set-up: AUC ipGTT: unit not given beside the values
# Text: (§2) Data are representative of six mice per group (n = 6 for (a–f)). g–j Mice were killed at day 31. g β-cell mass (given as percentage of the whole pancreatic section from ten sections spanning the width of the pancreas; n = 5 mice/group) and quantitative analyses from triple stainings for (h) TUNEL, (i) Ki67, (j) pHH3, and (k) nuclear PDX1 expression, insulin, and DAPI expressed as percentage of TUNEL-, Ki67-, pHH3-, or nuclear PDX1-positive β-cells ± SEM. An average number of 13667 (h), 5937 (i), 7108 (j), or 4330 (k) β-cells were counted from n = 3–5 (h, i, k) or n = 5–6 (j) mice/group.
# (§3) For intraperitoneal glucose tolerance tests, mice were fasted 12 h overnight and injected i.p. with glucose (40%; B.Braun, Melsungen, Germany) at a dose of 1 g/kg body weight. Blood samples were obtained at time points 0, 15, 30, 60, 90, and 120 min for glucose measurements by using a Glucometer. For i.p. insulin tolerance tests, mice were injected with 0.75 U/kg body weight recombinant human insulin (Novolin, Novo Nordisk) after 4–5-h fasting, and glucose concentration was determined with the Glucometer. Insulin secretion was measured before (0 min) and after (15 and 30 min) i.p. injection of glucose (2 g/kg) and measured by using ultrasensitive mouse Elisa kit (ALPCO Diagnostics, Salem, NH).
# [14] = system: obese diabetic Lepr db/db mice; test: db/db model: insulin secretion during ipGTT; assay type: in vivo, mouse; set-up: GSIS: unit not given here
# Text: as §2, §3
# [15] = system: obese diabetic Lepr db/db mice; test: db/db model: nuclear PDX1-positive β-cells; assay type: in vivo, mouse; details: for PDX1 %/mouse: dbdb mice
# Text: as §2
# Mouse pancreases were dissected and fixed in 4% formaldehyde at 4 °C for 12 h before embedding in paraffin[62]. Two-four-micrometer sections were deparaffinized, rehydrated, and incubated overnight at 4 °C with anti-PDX-1 (Abcam; #47267), anti-Glut2 (Chemicon; #07-1402), anti-Ki67 (Dako; #M7249), anti-phospho-Histone H3 (Ser10; Merck #06-570), and anti-NKX6.1 (DSHB, University of Iowa #F55A12[66]) in combination with TSA (Invitrogen #T30955), or for 2 h at room temperature with anti-insulin (Dako; A0546) antibodies (all at a dilution of 1:100, except anti-PDX-1, which was diluted 1:400) followed by fluorescein isothiocyanate (FITC)- or Cy3-conjugated secondary antibodies (Jackson ImmunoResearch Laboratories, West Grove, PA). Slides were mounted with Vectashield with 4′6-diamidino-2-phenylindole (DAPI) (Vector Labs). β-cell apoptosis was analyzed by the terminal deoxynucleotidyl transferase-mediated dUTP nick-end labeling (TUNEL) technique according to the manufacturer’s instructions (In Situ Cell Death Detection Kit, TMR red; Roche) and double stained for insulin. Fluorescence was analyzed by using a Nikon MEA53200 (Nikon GmbH, Dusseldorf, Germany) microscope, and images were acquired by using NIS-Elements software (Nikon).
# [16] = clinical trials; cited from earlier work
# [17] = molecular target: MST2 (Homo sapiens, UniProt Q13188); test: biochemical; details: read-out: % inhibition by neratinib
# [18] = molecular target: PAK2 (Homo sapiens, UniProt Q13177); test: biochemical; details: read-out: % inhibition by neratinib
# [19] = molecular target: FLT-3 (Homo sapiens, UniProt P36888); test: Nanosyn kinase profiling, mobility shift assay; details: read-out: % inhibition by neratinib
# [20] = molecular target: MAPK1 (Homo sapiens, UniProt P28482); test: Nanosyn kinase profiling, mobility shift assay; details: read-out: % inhibition by neratinib
# [21] = molecular target: PRKACA (Homo sapiens, UniProt P17612); test: Nanosyn kinase profiling, mobility shift assay; details: read-out: % inhibition by neratinib
# Sequence of MAP4K2 (Q12851 whole entry, species assumed): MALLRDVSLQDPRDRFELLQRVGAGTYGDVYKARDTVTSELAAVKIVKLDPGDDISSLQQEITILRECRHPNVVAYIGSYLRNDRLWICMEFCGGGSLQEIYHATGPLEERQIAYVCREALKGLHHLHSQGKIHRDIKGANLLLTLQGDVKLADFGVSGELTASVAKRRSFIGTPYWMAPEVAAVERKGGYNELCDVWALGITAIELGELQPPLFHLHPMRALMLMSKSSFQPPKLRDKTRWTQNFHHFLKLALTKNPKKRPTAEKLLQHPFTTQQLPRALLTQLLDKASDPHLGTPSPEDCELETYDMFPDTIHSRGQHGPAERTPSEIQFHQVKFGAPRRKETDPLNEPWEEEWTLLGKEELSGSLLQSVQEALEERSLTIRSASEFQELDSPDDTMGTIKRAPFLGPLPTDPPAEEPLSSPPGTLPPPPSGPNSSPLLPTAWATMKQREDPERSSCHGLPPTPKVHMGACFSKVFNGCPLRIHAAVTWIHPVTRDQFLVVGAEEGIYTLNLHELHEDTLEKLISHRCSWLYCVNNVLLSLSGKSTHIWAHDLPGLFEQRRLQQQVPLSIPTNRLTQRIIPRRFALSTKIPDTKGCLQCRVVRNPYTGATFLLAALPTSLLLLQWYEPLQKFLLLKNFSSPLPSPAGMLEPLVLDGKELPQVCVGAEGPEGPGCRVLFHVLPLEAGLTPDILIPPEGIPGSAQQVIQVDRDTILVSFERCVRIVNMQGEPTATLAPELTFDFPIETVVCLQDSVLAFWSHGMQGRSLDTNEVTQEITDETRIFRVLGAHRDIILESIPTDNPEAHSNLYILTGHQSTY
# Sequence of FLT-3 (P36888 27-993): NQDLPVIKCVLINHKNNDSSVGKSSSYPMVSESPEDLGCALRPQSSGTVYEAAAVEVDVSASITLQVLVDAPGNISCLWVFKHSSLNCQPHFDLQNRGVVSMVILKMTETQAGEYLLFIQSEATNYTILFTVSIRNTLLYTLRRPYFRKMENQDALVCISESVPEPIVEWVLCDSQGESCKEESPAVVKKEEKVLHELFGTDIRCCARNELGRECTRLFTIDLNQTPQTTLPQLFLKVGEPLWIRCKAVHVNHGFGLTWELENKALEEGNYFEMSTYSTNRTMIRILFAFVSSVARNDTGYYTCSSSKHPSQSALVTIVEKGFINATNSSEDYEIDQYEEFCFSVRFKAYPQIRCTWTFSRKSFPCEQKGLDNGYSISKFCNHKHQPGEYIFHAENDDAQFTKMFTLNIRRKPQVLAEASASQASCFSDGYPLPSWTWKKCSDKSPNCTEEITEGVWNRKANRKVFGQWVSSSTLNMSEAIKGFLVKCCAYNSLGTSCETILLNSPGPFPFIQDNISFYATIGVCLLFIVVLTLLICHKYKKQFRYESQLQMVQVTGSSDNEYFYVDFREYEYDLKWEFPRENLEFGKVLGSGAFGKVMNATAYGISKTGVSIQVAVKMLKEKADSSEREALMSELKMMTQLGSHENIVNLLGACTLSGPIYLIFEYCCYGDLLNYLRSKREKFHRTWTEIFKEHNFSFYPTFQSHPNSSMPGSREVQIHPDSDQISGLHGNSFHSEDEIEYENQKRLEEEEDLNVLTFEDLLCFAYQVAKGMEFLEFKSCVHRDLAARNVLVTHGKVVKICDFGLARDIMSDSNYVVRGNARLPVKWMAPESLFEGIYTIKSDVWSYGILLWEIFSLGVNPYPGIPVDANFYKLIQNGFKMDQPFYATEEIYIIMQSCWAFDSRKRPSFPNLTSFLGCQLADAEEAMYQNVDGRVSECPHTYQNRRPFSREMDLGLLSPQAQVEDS
# T7 sequence (Q16816 whole entry): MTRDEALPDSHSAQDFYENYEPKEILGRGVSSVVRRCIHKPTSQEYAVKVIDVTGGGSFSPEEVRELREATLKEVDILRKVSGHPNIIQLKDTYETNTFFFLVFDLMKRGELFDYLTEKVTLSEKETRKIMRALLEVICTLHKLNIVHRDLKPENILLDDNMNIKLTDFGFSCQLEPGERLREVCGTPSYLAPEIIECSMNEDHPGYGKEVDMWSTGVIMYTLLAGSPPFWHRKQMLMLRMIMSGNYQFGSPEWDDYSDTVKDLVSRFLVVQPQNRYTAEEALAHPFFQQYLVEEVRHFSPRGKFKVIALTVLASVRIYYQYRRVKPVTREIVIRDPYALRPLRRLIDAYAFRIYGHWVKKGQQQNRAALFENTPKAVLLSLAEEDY
# Sequence of MAPK1 (P28482 whole entry): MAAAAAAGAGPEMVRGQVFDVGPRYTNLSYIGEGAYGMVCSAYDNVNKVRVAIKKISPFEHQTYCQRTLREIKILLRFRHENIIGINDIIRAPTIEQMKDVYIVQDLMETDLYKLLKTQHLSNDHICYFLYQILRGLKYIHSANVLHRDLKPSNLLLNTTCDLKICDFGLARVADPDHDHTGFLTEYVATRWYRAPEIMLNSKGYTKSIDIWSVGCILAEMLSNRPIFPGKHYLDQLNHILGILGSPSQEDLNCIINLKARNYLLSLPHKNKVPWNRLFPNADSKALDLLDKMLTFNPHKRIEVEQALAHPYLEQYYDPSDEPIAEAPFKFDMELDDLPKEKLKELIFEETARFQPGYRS
# T3 sequence (Q86Z02 whole entry, species assumed): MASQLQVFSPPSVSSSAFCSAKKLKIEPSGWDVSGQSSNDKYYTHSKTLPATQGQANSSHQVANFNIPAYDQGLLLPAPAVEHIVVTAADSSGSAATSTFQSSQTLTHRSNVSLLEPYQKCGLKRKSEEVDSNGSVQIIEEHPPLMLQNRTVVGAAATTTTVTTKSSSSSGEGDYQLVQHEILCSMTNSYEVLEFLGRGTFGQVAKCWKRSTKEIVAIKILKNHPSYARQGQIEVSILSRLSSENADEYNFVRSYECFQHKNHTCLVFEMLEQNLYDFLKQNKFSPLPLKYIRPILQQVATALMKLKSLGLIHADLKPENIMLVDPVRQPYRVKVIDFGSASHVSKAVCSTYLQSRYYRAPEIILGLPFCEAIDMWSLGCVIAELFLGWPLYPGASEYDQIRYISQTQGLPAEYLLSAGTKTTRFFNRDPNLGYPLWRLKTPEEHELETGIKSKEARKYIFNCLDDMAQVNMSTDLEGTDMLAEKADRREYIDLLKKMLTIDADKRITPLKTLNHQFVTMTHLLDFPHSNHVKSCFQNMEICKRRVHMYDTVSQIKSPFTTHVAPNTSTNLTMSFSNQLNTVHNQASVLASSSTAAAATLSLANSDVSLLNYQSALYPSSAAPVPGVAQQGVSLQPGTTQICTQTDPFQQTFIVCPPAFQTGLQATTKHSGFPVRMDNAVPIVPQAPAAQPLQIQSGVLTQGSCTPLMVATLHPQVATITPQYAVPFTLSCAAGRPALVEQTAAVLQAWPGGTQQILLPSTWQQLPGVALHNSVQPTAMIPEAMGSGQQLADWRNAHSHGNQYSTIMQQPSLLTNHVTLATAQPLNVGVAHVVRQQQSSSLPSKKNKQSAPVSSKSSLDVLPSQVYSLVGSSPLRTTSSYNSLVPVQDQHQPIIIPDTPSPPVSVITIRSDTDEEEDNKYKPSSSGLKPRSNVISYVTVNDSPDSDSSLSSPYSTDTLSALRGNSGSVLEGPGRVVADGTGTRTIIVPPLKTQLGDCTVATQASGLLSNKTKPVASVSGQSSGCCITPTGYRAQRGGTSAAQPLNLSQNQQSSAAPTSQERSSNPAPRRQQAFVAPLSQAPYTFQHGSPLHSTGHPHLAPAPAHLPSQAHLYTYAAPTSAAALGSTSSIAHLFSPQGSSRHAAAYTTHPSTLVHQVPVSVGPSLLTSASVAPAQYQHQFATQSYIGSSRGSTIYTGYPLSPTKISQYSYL
# T4 sequence (Q9Y6E0 whole entry, species assumed): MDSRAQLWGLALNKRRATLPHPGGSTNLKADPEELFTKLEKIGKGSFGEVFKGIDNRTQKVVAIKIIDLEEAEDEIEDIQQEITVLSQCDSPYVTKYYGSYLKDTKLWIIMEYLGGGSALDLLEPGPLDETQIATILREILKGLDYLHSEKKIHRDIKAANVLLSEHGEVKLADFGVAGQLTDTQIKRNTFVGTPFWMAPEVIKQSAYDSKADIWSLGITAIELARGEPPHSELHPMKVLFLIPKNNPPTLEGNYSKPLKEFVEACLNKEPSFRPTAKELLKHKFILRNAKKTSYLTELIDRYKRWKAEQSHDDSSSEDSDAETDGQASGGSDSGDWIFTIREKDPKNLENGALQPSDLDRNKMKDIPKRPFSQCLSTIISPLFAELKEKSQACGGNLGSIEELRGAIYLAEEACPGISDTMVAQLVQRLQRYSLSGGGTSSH
# Sequence of PAK3 (O75914 whole entry, species assumed): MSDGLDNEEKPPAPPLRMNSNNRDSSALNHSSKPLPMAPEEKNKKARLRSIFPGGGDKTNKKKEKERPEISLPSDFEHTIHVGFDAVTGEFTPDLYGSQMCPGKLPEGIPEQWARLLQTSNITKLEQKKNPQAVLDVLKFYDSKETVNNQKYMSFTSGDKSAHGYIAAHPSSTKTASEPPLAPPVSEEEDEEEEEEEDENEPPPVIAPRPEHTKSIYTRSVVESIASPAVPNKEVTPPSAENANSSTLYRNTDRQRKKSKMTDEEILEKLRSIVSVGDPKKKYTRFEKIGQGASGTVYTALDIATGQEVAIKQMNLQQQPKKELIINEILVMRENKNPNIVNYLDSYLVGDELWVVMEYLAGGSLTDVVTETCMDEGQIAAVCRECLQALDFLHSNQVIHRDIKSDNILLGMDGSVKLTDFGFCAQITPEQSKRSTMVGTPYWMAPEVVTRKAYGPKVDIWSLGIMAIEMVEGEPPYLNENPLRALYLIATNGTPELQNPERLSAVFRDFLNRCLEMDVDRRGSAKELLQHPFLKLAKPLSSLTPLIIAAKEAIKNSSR
structure (smiles),measurement,setting,value
CCOc1cc2ncc(C#N)c(Nc3ccc(OCc4ccccn4)c(Cl)c3)c2cc1NC(=O)/C=C/CN(C)C [neratinib],IC50,[1],0.185 µM
same,IC50,[2],0.937 µM
same,IC50,[3],> 20 µM
same,IC50,[4],0.102 µM
same,IC50,[5],0.005 µM
same,IC50,[6],1.5 µM
same,IC50,[7],> 20 µM
same,IC50,[8],> 20 µM
same,IC50,[9],5.85 µM
same,number of kinases with >50% of inhibition,[10],16
same,ins/gluc,"[11]; NeraCtr, Mean",4.232
same,ins/gluc,"[11]; NeraCtr, fed state, individual mice",5.92 and 11.7581 and 5.035 and 1.3144 and 2.029 and 2.349 and 1.295 and 4.152
same,ins/gluc,"[11]; NeraSTZ, Mean",2.006
same,ins/gluc,"[11]; NeraSTZ, fed state, individual mice",2.868 and 0.965 (2×) and 1.859 and 3.923 and 1.035 and 2.9255 and 4.307 and 0.6012 and 1.262 and 1.53 and 2.798 and 0.7155 and 2.33
same,Ki67%/ mouse,"[12]; NeraCtr group (no STZ), MEAN",0.3774%
same,Ki67%/ mouse,"[12]; NeraCtr group (no STZ), individual mice",0% and 2% and 1.019%
same,Ki67%/ mouse,"[12]; NeraSTZ group, MEAN",3.98%
same,Ki67%/ mouse,"[12]; NeraSTZ group, individual mice",0% and 6.981% and 5.492% and 7.984% and 3.425%
same,basal glucose levels after an overnight fast,[13]; db/db,unchanged
same,glucose levels in ipGTT,[13]; db/db,lower glucose levels at all time points measured
same,AUC ipGTT,"[13]; insert 8b, individual mice",30540 and 34635 and 37620 and 33592.5 and 28230 and 32955
same,MEAN AUC ipGTT,"[13]; insert 8b, mean",32928.8
same,ipGTT,"[13]; time after glc 0, MEAN",167.333 mg/dL
same,ipGTT,"[13]; time after glc 0, individual mice",133 mg/dL and 142 mg/dL and 168 mg/dL and 224 mg/dL and 154 mg/dL and 183 mg/dL
same,ipGTT,"[13]; time after glc 15, MEAN",424.5 mg/dL
same,ipGTT,"[13]; time after glc 15, individual mice, 600 mg/dl is maximum reading",425 mg/dL and 445 mg/dL and 468 mg/dL and 413 mg/dL and 308 mg/dL and 488 mg/dL
same,ipGTT,"[13]; time after glc 30, MEAN, 600 mg/dl is maximum reading",520.5 mg/dL
same,ipGTT,"[13]; time after glc 30, individual mice, 600 mg/dl is maximum reading",481 mg/dL and ≥ 600 mg/dL and 476 mg/dL and 485 mg/dL
same,ipGTT,"[13]; time after glc 60, MEAN",340.167 mg/dL
same,ipGTT,"[13]; time after glc 60, individual mice",301 mg/dL and 355 mg/dL and 388 mg/dL and 367 mg/dL and 321 mg/dL and 309 mg/dL
same,ipGTT,"[13]; time after glc 90, MEAN",226 mg/dL
same,ipGTT,"[13]; time after glc 90, individual mice",221 mg/dL and 183 mg/dL and 280 mg/dL and 259 mg/dL and 141 mg/dL and 272 mg/dL
same,ipGTT,"[13]; time after glc 120, MEAN",170.833 mg/dL
same,ipGTT,"[13]; time after glc 120, individual mice",191 mg/dL and 139 mg/dL and 210 mg/dL and 133 mg/dL and 213 mg/dL
same,insulin secretion,[14]; db/db,enhanced insulin secretion
same,GSIS,"[14]; time after glucose injection 0, MEAN",7.868
same,GSIS,"[14]; time after glucose injection 0, individual mice",7.6163 and 7.7481 and 3.303 and 9.154 and 8.9273 and 10.458
same,GSIS,"[14]; time after glucose injection 15, MEAN",11.2434
same,GSIS,"[14]; time after glucose injection 15, individual mice",17.086 and 7.6058 and 10.292 and 7.1842 and 8.1355 and 17.157
same,nuclear PDX1,"[15]; db/db, day 31",enhanced
same,PDX1 %/mouse,[15]; Mean,57.3127%
same,PDX1 %/mouse,[15]; individual mice,48.8372% and 71.3415% and 51.7595%
same,most common neratinib-associated adverse events,[16],"diarrhea, vomiting, and nausea"
same,inhibition at 10 µM,[17],97%
same,inhibition at 10 µM,[18],101%
same,inhibition at 10 µM,[19],47%
same,inhibition at 10 µM,[20],12%
same,inhibition at 10 µM,[21],3%
